This is an account of results in PubChem BioAssay (NCI).

Each structure is given as a SMILES string. Where “and” joins values, the source holds several entries; their conditions need not be identical. Equal entries are not always repeated.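 Interpolation was linear, between the two tested concentrations surrounding the appropriate level; five concentrations were tested over 48 hours in 96-well plates. At the GI50, growth is halved. At the TGI there is no net growth.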 Some results are limits rather than exact numbers.

Test systems include PC-3 prostate; HS 578T breast; SNB-75 CNS; MDA-MB-231 breast; COLO 205 colon; DU-145 prostate; HOP-62 NSCLC; SK-MEL-2 melanoma; SF-539 CNS; A549 NSCLC.
Holding throughout (test): growth of human tumour cells (NCI), 48 h

Turning to `O=C1c2cccc(NCCN=Cc3ccccc3O)c2C(=O)c2c(NCCN=Cc3ccccc3O)cccc21`, the GI50 in the assay on PC-3 prostate was 1.03 µM; in the assay on HS 578T breast, 0.838 µM; in the assay with SNB-75 CNS, 0.163 µM; in the assay with MDA-MB-231 breast, 0.489 µM; in the assay with COLO 205 colon it was 0.46 µM; with DU-145 prostate, 0.364 µM. The GI50 in the assay on HOP-62 NSCLC is 0.663 µM; with SK-MEL-2 melanoma it was 1.2 µM; in the assay on SF-539 CNS, 1.48 µM; with A549 NSCLC, 0.668 µM. Besides, the TGI is 5.87 µM in the assay on PC-3 prostate; 3.98 µM in the assay on HS 578T breast; 2.65 µM in the assay on SNB-75 CNS; 2.28 µM with MDA-MB-231 breast; 2.18 µM in the assay with COLO 205 colon; 1.55 µM in the assay on DU-145 prostate. The TGI was 3.89 µM with HOP-62 NSCLC, 3.67 µM in the assay on SK-MEL-2 melanoma, 4.57 µM in the assay with SF-539 CNS and 14.3 µM in the assay on A549 NSCLC.

`O=c1ssc(Cl)c1Cl`: the TGI with PC-3 prostate was more than 10 µM; in the assay with HS 578T breast it was more than 10 µM; in the assay with SNB-75 CNS it was more than 10 µM; with MDA-MB-231 breast, more than 10 µM; in the assay with COLO 205 colon, 4.32 µM; in the assay on DU-145 prostate it was more than 10 µM. The TGI with HOP-62 NSCLC, in the assay on SK-MEL-2 melanoma, with SF-539 CNS and with A549 NSCLC was more than 10 µM in each case.

In the case of `Cc1cc(C(C)(C)C)cc(CNC2CCCCC2)c1O`, the TGI is 31 µM in the assay with PC-3 prostate; 48.7 µM with HS 578T breast; 26 µM in the assay with SNB-75 CNS; 32.9 µM in the assay with MDA-MB-231 breast; 31.5 µM in the assay with COLO 205 colon; 37.6 µM with DU-145 prostate. The TGI in the assay with HOP-62 NSCLC is 47.6 µM; in the assay on SK-MEL-2 melanoma it was 34 µM; in the assay with SF-539 CNS, 33 µM; in the assay on A549 NSCLC, 33.8 µM.

As to `COc1cc(C(=O)Nc2cc(OC)c3ccn(C)c3c2)cc2c1C[C@]1(C)CC[C@@H](O)C(C)(C)[C@H]1O2`, the GI50 in the assay on PC-3 prostate is 0.195 µM; in the assay with HS 578T breast it was 0.0673 µM; in the assay with SNB-75 CNS, 0.0521 µM; in the assay on MDA-MB-231 breast it was 1.86 µM; in the assay on COLO 205 colon, 1.4 µM; in the assay on DU-145 prostate it was 1.22 µM. The GI50 with HOP-62 NSCLC is 0.77 µM; in the assay on SK-MEL-2 melanoma it was 0.323 µM; with SF-539 CNS it was 0.0632 µM. Moreover, the TGI is more than 100 µM in the assay on PC-3 prostate; 2.05 µM with HS 578T breast; 2.19 µM in the assay with SNB-75 CNS; 16.5 µM with MDA-MB-231 breast; 6.41 µM with COLO 205 colon; 29 µM in the assay on DU-145 prostate. For the same compound, the TGI turned out to be 13.1 µM with HOP-62 NSCLC, 4.48 µM in the assay on SK-MEL-2 melanoma, 2.22 µM with SF-539 CNS and 33.7 µM in the assay with A549 NSCLC.

As for `COc1cc(-c2cc(-c3cc(OC)c(OC)c(OC)c3)nc3nc(N)[nH]c(=O)c23)ccc1Oc1ccnc2cc(Cl)ccc12`, the GI50 is 3.18 µM in the assay on PC-3 prostate; 3.1 µM in the assay on HS 578T breast; 1.9 µM with SNB-75 CNS; 2.59 µM in the assay with MDA-MB-231 breast; 12.9 µM in the assay with COLO 205 colon; 3.51 µM in the assay on DU-145 prostate. Further, the GI50 with HOP-62 NSCLC was 2.35 µM; in the assay with SK-MEL-2 melanoma, 2.25 µM; with SF-539 CNS it was 1.16 µM; in the assay on A549 NSCLC, 2.84 µM. In addition, the TGI in the assay on PC-3 prostate is more than 100 µM; with HS 578T breast it was more than 100 µM; in the assay with SNB-75 CNS, more than 100 µM; in the assay with MDA-MB-231 breast it was 24.7 µM; in the assay with COLO 205 colon, 30 µM; in the assay on DU-145 prostate, more than 100 µM. In addition, the TGI in the assay with HOP-62 NSCLC was 16.7 µM; in the assay on SK-MEL-2 melanoma, 7.68 µM; with SF-539 CNS, 3.18 µM; with A549 NSCLC, more than 100 µM.

As for `CC(=O)c1cc(C(=O)c2ccc3c(c2)Sc2ccccc2N3)c2cc(C)ccn12`, the GI50 in the assay with PC-3 prostate is 0.0506 µM; in the assay with HS 578T breast it was 0.084 µM; in the assay with SNB-75 CNS it was 0.0416 µM; in the assay with MDA-MB-231 breast it was 0.348 µM; with COLO 205 colon, 0.0598 µM; in the assay with DU-145 prostate, 0.188 µM. Moreover, the GI50 in the assay with HOP-62 NSCLC was 0.146 µM; in the assay with SK-MEL-2 melanoma it was 81.4 µM; with SF-539 CNS, 0.0581 µM; in the assay with A549 NSCLC, 0.0648 µM. For the same compound, the TGI with PC-3 prostate was more than 100 µM; in the assay with HS 578T breast, more than 100 µM; in the assay on SNB-75 CNS it was more than 100 µM; in the assay with MDA-MB-231 breast, more than 100 µM; with COLO 205 colon, 0.346 µM; in the assay with DU-145 prostate, more than 100 µM. The TGI is more than 100 µM in the assay on HOP-62 NSCLC, more than 100 µM with SK-MEL-2 melanoma, 0.826 µM with SF-539 CNS and more than 100 µM in the assay with A549 NSCLC.

For the compound `CN(C)c1ccc(/C=C/C2=[N+](C)c3ccccc3C2(C)C)cc1`, the GI50 in the assay on PC-3 prostate was 0.235 µM; in the assay on HS 578T breast, 4.15 µM; with SNB-75 CNS, 2.47 µM; in the assay on MDA-MB-231 breast, 1.51 µM; in the assay on COLO 205 colon, 0.505 µM; in the assay on DU-145 prostate, 0.453 µM. Also, the GI50 in the assay with HOP-62 NSCLC is 0.862 µM; in the assay on SK-MEL-2 melanoma, 1.61 µM; in the assay on SF-539 CNS, 1.65 µM; in the assay on A549 NSCLC, 2.64 µM. In addition, the TGI was 13.8 µM in the assay with PC-3 prostate; more than 100 µM in the assay on HS 578T breast; 20.6 µM in the assay on SNB-75 CNS; 20.9 µM in the assay with MDA-MB-231 breast; 2.07 µM with COLO 205 colon; 23.9 µM with DU-145 prostate. Besides, the TGI amounted to 13.8 µM with HOP-62 NSCLC, 16.8 µM with SK-MEL-2 melanoma, 14 µM in the assay on SF-539 CNS and 14.9 µM with A549 NSCLC.

As for `COc1ccc(C2C(C)C(=O)C(C)C(c3ccc(OC)cc3)N2N=O)cc1` (centres undefined), the TGI was more than 1000 µM in the assay on PC-3 prostate; 890 µM with HS 578T breast; 20.4 µM and 80 µM and 57.8 µM with SNB-75 CNS; 132 µM in the assay on MDA-MB-231 breast; more than 750 µM in the assay on COLO 205 colon; 637 µM in the assay with DU-145 prostate. In addition, the TGI was > 80 µM and 60.7 µM and 293 µM in the assay with HOP-62 NSCLC; 602 µM in the assay on SK-MEL-2 melanoma; 46.8 µM and 341 µM and 222 µM in the assay on SF-539 CNS; 750 µM and > 1000 µM with A549 NSCLC. The GI50 with SNB-75 CNS is 5.93 µM; in the assay on COLO 205 colon, more than 750 µM; with HOP-62 NSCLC, 24.8 µM and 23.9 µM; with SF-539 CNS it was 18 µM and 41.3 µM; in the assay with A549 NSCLC it was 409 µM.

Consider `O=c1oc2ccc(Br)cc2c(=O)n1-c1ccc(I)cc1F`, for which the GI50 was 1.13 µM in the assay on PC-3 prostate; 0.287 µM in the assay on HS 578T breast; 0.219 µM in the assay with SNB-75 CNS; 0.327 µM with MDA-MB-231 breast; 3.97 µM in the assay with COLO 205 colon; 0.494 µM with DU-145 prostate. For the same compound, the GI50 in the assay with HOP-62 NSCLC is 0.774 µM; in the assay with SK-MEL-2 melanoma, 0.252 µM; in the assay on SF-539 CNS it was 0.403 µM; in the assay with A549 NSCLC, 0.717 µM. For the same compound, the TGI stood at 5.86 µM in the assay with PC-3 prostate; 1.36 µM with HS 578T breast; 1.36 µM with SNB-75 CNS; 2.54 µM with MDA-MB-231 breast; 15.1 µM in the assay on COLO 205 colon; 26.9 µM in the assay with DU-145 prostate. For the same compound, the TGI was 7.76 µM in the assay on HOP-62 NSCLC, 0.791 µM with SK-MEL-2 melanoma, 4.04 µM in the assay with SF-539 CNS and 22.9 µM with A549 NSCLC.
